Reference: paper PMC8617627, “Novel DYRK1A Inhibitor Rescues Learning and Memory Deficits in a Mouse Model of Down Syndrome” (Pharmaceuticals, 2021)
Read-outs that look alike come from different tables or passages of the source.

Legend:
Experiment in all cases: Kinase profile (33P ATP filter binding)
Format in all cases: biochemical
Details in all cases: read-out: Remaining protein kinase activity
DAPK1 = DAPK1 (Homo sapiens, UniProt P53355)
PIM2 = PIM2 (Homo sapiens, UniProt Q9P1W9)
MKK2 = MKK2 (Homo sapiens, UniProt P36507)
MINK1 = MINK1 (Homo sapiens, UniProt Q8N4C8)
TLK1 = target: T1, TLK1 (Homo sapiens, UniProt Q9UKI8)
T1 sequence (Q9UKI8 1-766): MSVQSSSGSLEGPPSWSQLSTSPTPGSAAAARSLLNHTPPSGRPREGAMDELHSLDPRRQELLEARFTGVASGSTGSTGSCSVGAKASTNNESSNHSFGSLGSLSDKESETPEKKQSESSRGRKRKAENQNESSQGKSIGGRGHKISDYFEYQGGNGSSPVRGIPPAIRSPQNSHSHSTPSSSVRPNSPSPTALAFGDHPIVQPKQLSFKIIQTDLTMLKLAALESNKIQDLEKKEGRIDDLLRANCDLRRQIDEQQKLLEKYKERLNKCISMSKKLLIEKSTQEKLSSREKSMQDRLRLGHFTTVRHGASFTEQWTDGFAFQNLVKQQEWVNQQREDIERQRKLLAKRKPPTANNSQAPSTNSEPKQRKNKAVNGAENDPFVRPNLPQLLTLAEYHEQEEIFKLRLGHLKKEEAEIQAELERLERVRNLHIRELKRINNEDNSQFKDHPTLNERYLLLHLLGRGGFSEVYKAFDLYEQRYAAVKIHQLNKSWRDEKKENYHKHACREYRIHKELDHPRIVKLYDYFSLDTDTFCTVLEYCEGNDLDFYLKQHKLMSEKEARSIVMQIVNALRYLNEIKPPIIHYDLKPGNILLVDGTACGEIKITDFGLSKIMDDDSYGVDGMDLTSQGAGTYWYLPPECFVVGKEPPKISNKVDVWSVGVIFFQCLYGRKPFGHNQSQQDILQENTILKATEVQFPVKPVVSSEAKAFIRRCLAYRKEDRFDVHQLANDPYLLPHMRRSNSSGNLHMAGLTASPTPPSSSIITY

EF2K = target: T2, EF2K (Homo sapiens, UniProt O00418)
T2 sequence (O00418 1-725): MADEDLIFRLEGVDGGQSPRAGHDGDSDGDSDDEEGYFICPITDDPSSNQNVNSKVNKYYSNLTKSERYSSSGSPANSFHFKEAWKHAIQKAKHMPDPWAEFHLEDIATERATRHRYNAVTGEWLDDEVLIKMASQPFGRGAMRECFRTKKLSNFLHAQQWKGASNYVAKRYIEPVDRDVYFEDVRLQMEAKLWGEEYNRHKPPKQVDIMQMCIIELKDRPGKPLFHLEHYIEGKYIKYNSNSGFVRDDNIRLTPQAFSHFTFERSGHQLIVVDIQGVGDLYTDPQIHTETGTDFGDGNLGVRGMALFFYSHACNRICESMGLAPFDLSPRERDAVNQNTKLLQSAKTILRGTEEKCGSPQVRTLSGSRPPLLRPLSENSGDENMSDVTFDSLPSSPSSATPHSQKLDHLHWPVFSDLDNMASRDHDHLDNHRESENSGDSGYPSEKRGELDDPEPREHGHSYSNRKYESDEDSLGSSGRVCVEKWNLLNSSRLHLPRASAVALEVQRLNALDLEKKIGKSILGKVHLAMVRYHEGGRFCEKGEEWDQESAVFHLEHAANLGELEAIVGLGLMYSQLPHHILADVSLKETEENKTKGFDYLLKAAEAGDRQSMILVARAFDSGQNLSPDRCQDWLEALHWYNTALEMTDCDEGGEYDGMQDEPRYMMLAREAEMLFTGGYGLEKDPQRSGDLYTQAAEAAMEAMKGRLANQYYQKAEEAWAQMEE

Sequence of DAPK1 (P53355 whole entry): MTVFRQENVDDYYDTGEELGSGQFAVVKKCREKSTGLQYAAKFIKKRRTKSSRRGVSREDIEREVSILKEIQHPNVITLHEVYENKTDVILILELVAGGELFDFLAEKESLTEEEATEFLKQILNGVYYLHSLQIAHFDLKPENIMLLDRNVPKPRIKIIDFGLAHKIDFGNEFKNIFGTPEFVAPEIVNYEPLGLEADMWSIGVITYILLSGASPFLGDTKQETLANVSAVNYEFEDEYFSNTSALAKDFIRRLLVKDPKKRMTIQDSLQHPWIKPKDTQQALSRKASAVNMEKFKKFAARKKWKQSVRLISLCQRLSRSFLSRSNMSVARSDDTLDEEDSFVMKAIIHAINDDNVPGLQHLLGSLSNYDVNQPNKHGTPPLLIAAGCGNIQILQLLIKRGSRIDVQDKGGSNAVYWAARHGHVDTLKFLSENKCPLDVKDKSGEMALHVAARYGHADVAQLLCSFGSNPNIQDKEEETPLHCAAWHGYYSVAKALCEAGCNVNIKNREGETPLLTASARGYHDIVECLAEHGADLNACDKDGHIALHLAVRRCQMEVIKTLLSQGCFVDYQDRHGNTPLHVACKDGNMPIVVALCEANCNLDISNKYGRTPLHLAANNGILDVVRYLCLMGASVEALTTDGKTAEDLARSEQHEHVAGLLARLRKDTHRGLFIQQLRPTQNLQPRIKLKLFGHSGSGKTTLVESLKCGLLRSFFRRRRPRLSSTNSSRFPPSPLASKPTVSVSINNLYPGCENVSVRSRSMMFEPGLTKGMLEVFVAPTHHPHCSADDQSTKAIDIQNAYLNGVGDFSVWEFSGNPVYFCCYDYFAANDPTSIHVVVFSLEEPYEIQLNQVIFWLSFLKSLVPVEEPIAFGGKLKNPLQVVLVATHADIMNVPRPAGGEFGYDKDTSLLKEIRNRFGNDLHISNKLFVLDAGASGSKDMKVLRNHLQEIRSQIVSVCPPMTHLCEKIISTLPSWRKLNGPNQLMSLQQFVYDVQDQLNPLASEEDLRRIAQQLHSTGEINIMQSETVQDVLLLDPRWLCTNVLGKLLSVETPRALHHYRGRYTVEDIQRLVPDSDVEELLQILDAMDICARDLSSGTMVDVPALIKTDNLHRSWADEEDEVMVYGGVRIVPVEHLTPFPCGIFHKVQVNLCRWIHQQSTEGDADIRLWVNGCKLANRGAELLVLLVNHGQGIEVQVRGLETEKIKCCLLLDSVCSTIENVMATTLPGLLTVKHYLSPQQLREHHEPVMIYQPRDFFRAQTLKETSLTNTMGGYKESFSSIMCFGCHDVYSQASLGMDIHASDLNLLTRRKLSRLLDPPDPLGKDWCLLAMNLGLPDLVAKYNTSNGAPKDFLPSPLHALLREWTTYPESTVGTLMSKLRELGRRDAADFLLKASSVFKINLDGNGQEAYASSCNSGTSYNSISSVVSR
Sequence of PIM2 (Q9P1W9 whole entry): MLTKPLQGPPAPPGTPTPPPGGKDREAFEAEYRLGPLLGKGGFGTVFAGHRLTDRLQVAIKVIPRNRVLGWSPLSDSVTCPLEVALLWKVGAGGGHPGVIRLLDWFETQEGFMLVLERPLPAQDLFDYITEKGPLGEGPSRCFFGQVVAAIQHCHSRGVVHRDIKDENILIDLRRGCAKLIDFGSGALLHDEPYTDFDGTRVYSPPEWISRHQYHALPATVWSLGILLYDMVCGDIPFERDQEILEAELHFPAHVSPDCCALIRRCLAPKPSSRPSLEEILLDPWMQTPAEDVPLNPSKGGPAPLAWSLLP
Sequence of MINK1 (Q8N4C8 whole entry): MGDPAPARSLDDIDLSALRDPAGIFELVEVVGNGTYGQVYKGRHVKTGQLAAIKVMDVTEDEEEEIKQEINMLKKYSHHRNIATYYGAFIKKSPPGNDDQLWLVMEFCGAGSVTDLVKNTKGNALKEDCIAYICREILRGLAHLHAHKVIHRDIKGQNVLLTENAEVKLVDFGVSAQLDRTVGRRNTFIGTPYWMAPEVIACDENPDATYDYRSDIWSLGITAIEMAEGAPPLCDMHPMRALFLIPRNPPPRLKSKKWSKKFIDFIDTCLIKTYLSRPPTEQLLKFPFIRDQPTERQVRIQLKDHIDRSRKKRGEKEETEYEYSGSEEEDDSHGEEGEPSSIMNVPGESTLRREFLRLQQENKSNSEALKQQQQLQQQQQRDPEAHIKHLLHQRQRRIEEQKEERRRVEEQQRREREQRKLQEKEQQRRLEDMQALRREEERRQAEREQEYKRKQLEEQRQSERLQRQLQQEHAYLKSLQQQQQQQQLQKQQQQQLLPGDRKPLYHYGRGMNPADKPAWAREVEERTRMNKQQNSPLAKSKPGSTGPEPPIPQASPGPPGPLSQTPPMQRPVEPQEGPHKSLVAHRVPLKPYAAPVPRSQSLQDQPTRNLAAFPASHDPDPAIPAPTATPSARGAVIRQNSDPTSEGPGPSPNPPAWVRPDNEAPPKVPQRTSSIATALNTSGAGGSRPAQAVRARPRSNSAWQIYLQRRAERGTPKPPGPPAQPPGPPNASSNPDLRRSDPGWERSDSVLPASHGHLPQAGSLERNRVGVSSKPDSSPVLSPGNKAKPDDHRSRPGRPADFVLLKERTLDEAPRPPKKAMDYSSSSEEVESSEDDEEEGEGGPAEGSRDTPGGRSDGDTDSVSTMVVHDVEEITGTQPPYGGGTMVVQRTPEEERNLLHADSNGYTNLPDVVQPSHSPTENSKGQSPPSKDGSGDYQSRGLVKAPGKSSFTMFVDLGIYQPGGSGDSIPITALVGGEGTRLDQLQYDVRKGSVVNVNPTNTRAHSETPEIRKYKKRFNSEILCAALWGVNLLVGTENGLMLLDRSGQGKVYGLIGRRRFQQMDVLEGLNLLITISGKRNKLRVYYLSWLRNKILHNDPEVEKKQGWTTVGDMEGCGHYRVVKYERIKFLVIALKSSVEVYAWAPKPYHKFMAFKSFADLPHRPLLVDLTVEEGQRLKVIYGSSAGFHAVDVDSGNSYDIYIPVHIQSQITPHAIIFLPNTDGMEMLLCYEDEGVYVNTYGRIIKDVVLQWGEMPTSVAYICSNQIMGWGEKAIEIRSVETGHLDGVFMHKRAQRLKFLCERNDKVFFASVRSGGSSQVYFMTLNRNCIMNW
Sequence of MKK2 (P36507 whole entry, species assumed): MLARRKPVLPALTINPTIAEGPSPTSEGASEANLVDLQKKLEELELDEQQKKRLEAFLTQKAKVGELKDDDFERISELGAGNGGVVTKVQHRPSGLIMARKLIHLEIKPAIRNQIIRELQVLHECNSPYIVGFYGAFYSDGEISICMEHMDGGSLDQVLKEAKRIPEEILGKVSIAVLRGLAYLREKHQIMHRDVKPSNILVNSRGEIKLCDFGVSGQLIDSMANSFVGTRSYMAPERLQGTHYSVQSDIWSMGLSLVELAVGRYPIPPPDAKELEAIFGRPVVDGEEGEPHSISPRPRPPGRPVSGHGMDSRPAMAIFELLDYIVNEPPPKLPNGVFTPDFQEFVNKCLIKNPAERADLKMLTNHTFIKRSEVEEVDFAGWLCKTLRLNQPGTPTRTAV

**Q.** How did the remaining activity at 1 µM (DAPK1) turn out when `COc1ccc2sc(-c3cncc(NC(C)=O)c3)nc2c1` [PST-001, N-(5-(5-Methoxybenzo[d]thiazol-2-yl)pyridin-3-yl)acetamide] was run?
**A.** 114%

**Q.** What about the remaining activity at 100 µM (DAPK1) of the same compound?
**A.** 101%

**Q.** What about the remaining activity at 1 µM (PIM2) of the same compound?
**A.** 120%

**Q.** And the remaining activity at 100 µM (PIM2)?
**A.** 102%

**Q.** And the remaining activity at 1 µM (MKK2)?
**A.** 75%

**Q.** And the remaining activity at 100 µM (MKK2)?
**A.** 100%

**Q.** And the remaining activity at 1 µM (MINK1)?
**A.** 104%

**Q.** And the remaining activity at 100 µM (MINK1)?
**A.** 88%

**Q.** And the remaining activity at 1 µM (TLK1)?
**A.** 129%

**Q.** What about the remaining activity at 100 µM (TLK1) of the same compound?
**A.** 134%

**Q.** What about the remaining activity at 1 µM (EF2K) of the same compound?
**A.** 113%

**Q.** What about the remaining activity at 100 µM (EF2K) of the same compound?
**A.** 106%

**Q.** `COc1ccc2sc(-c3cncc(N)c3)nc2c1` [compound 1, 5-(5-Methoxybenzo[d]thiazol-2-yl)pyridin-3-amine] was tested. Which remaining activity at 1 µM (DAPK1; DAPK1, 1 μM) did it give?
**A.** 103%

**Q.** What about the remaining activity at 100 µM (DAPK1; DAPK1, 100 μM) of the same compound?
**A.** 58%

**Q.** And the remaining activity at 1 µM (PIM2; PIM2, 1 μM)?
**A.** 110%

**Q.** And the remaining activity at 100 µM (PIM2; PIM2, 100 μM)?
**A.** 36%

**Q.** And the remaining activity at 1 µM (MKK2; MKK2, 1 μM)?
**A.** 81%

**Q.** What about the remaining activity at 100 µM (MKK2; MKK2, 100 μM) of the same compound?
**A.** 62%

**Q.** And the remaining activity at 1 µM (MINK1; MINK1, 1 μM)?
**A.** 108%

**Q.** And the remaining activity at 100 µM (MINK1; MINK1, 100 μM)?
**A.** 36%

**Q.** And the remaining activity at 1 µM (TLK1; TLK1, 1 μM)?
**A.** 131%

**Q.** What about the remaining activity at 100 µM (TLK1; TLK1, 100 μM) of the same compound?
**A.** 115%

**Q.** What about the remaining activity at 1 µM (EF2K; EF2K, 1 μM) of the same compound?
**A.** 112%

**Q.** And the remaining activity at 100 µM (EF2K; EF2K, 100 μM)?
**A.** 84%
